US11547130B2, “Nanocomposite bacteriostatic material and a preparation method and an application thereof” (Tianjin University of Science and Technology, priority 2019, dated 2023)

System: Bacillus subtilis
Assay: Shake-flask antibacterial test, viable count by dilution spread plate method
Type: cell-based
Method: Bacillus subtilis was selected as a strain for the antibacterial test. The Bacillus subtilis was cultured for overnight in a shake flask first, and a bacteria solution having a concentration of 10^8 CFU/mL was selected as a seed solution for later use. Multiple 100 mL triangular flasks provided with 30 mL of LB liquid medium were taken, and sterilized for 20 min at 121° C. The triangular flasks were divided into four groups, three triangular flasks in each group for parallel test.
(§1) The Bacillus subtilis solution having the concentration of 10^8 CFU/mL was inoculated to the above four groups as per an inoculum size of 2% (v/v), and respectively cultured for 4 h, 8 h, 12 h, 24 h and 28 h on a shaker, where a culture condition was 37° C. and 180 r/min. Then, a sample at every timing was taken, and a viable count in each shake flask was measured via a dilution spread plate method to embody the antibacterial activity.
as §1, with “r/min, for sampling.” for “r/min.”, “sample” for “sample at every timing”, “flask at every moment” for “flask”

## nisin
Experimental example 1 (Embodiment 1 materials, nisin 1 g/L), 1 mL agent in 30 mL LB, 8-12 h in culture
  concentration of bacteria in the shake flask: ≥ 10^7 CFU/mL
Experimental example 1 (Embodiment 1 materials, nisin 1 g/L), 1 mL agent in 30 mL LB, 4 h in culture, 37° C.
  concentration of viable bacteria in the shake flask: ≥ 10^4 CFU/mL
Experimental example 1 (nisin 1 g/L), nisin at 8 h, empty carrier at 24-28 h, nano-composite at 28 h
  antibacterial activity in words: lost bacteriostatic action at 8 h
Experimental example 2 (Embodiment 2 materials, nisin 10 g/L), at 16 h
  antibacterial activity in words: greatly reduced
